Experimental data published in ChEMBL document CHEMBL1144985, “Rational design, synthesis and structure-activity relationships of a cyclic succinate series of TNF-alpha converting enzyme inhibitors. Part 2: lead optimization” (Bioorg Med Chem Lett, 2003).
pIC50, pKi: −log10 of the molar value. In brackets after ≈: the same amount, converted by molar mass.

Legend:
[1] = molecular target: Disintegrin and metalloproteinase domain-containing protein 17 (Sus scrofa, UniProt O77636); test: In vitro binding affinity against porcine TACE
[2] = species: Homo sapiens; test: In vitro inhibition of TNF-alpha production was determined by using LPS-stimulated human whole blood assay (WBA); type: functional
[3] = system: Caco-2; conditions: Homo sapiens
Description: Caco-2 permeability was determined

[4] = molecular target: T1, Interstitial collagenase (Homo sapiens, UniProt P03956); test: Inhibitory activity against matrix metalloprotease-1 (MMP-1)
T1 sequence (P03956 whole entry): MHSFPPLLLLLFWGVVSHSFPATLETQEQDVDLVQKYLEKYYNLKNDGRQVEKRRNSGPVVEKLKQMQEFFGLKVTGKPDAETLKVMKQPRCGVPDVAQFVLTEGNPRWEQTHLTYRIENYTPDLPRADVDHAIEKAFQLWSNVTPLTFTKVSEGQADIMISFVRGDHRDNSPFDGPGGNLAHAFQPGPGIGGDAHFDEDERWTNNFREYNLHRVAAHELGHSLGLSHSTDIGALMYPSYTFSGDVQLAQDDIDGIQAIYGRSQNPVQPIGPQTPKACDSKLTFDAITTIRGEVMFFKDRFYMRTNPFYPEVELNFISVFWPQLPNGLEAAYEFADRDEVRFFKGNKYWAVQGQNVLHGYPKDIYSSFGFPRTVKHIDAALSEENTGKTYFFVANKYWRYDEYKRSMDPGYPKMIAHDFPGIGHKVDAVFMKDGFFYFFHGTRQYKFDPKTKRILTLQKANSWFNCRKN

[5] = Solubility was determined
[6] = molecular target: 72 kDa type IV collagenase (Homo sapiens, UniProt P08253); test: Inhibitory activity against matrix metalloprotease-2 (MMP-2)
[7] = molecular target: Matrix metalloproteinase-9 (Homo sapiens, UniProt P14780); test: Inhibitory activity against matrix metalloprotease-9 (MMP-9)
Chain of Matrix metalloproteinase-9 (P14780 whole entry): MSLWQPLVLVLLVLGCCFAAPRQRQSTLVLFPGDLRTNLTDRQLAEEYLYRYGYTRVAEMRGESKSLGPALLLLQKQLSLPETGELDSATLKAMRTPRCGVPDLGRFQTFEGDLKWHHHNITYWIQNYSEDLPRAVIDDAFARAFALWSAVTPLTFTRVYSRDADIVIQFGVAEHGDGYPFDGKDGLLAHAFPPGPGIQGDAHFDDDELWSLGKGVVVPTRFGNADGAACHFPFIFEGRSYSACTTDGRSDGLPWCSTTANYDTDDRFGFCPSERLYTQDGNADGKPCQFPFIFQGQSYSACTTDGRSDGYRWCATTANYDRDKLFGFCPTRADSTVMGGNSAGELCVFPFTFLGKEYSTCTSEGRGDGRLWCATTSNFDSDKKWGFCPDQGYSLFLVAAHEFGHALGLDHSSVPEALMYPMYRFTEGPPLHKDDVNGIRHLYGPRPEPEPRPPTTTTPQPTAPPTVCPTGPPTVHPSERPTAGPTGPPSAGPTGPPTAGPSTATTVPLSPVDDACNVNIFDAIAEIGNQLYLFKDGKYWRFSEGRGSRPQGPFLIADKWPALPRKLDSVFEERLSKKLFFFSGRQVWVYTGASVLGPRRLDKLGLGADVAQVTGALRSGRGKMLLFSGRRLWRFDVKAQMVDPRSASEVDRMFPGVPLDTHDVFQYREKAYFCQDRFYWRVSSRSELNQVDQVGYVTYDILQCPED

Chain of Disintegrin and metalloproteinase domain-containing protein 17 (O77636 whole entry, the tested form may be a part): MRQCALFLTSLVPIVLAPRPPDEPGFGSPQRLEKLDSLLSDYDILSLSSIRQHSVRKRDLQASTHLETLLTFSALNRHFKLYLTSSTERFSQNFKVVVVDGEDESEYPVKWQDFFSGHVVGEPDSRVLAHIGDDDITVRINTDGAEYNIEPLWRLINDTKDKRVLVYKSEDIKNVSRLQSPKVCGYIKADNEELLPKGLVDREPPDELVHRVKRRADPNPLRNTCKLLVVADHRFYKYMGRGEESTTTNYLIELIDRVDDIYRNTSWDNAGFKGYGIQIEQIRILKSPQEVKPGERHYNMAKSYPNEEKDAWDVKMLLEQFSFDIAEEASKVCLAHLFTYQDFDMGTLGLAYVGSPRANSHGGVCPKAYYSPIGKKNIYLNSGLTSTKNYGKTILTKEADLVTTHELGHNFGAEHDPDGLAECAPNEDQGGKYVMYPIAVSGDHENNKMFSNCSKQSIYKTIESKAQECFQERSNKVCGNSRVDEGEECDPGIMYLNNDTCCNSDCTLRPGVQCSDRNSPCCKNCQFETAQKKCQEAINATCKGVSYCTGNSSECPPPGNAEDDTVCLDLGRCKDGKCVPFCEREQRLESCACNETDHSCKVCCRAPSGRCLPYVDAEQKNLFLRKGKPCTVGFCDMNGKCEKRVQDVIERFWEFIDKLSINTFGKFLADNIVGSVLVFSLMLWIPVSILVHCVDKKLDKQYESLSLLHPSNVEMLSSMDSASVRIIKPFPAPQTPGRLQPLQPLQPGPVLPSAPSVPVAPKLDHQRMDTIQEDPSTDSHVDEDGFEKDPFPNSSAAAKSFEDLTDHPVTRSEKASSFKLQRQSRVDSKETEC
Chain of 72 kDa type IV collagenase (P08253 whole entry): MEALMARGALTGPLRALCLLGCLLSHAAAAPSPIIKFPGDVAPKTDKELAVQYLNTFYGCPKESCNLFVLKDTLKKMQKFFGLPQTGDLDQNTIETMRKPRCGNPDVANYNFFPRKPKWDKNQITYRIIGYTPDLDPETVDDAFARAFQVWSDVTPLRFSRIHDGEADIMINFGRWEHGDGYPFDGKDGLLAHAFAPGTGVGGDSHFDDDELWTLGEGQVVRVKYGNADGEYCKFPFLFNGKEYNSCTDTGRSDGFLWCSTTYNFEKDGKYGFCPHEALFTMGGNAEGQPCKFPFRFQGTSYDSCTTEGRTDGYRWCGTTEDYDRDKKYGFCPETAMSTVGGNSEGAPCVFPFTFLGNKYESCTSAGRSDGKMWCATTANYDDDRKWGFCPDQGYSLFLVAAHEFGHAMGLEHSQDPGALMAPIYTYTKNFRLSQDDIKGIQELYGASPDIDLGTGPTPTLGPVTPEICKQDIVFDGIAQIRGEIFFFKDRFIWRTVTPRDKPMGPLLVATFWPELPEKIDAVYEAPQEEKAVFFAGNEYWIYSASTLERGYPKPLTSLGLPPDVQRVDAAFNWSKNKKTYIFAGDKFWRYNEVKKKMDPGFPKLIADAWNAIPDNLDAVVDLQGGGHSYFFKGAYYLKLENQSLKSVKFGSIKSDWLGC

| SMILES | pIC50 [1] | pIC50 [2] | Papp [3] | pKi [4] | solubility [5] [µg/mL] | pKi [6] | pKi [7] |
| --- | --- | --- | --- | --- | --- | --- | --- |
| Cc1cc(COc2ccc(NC(=O)[C@H]3CCN(C(=O)C(C)C)C[C@@H]3C(=O)NO)cc2)c2ccccc2n1 | 9.66 | 6.57 | 0.3 10e-6 cm s-1 | < 5.31 | 30 (≈ 59.5 µM) | < 5.48 | < 5.67 |
| Cc1cc(COc2ccc(NC(=O)[C@@H]3[C@@H](C(=O)NO)CCCN3Cc3nccs3)cc2)c2ccccc2n1 | 9.00 | 5.85 |  | < 5.31 |  | < 5.48 | < 5.67 |
| Cc1cc(COc2ccc(NC(=O)[C@H]3CCN(C(C)C)C[C@@H]3C(=O)NO)cc2)c2ccccc2n1 | 8.92 | 5.92 |  | < 5.31 | > 10000 | < 5.48 | < 5.67 |
| CCN1CCC[C@H](C(=O)NO)[C@H]1C(=O)Nc1ccc(OCc2cc(C)nc3ccccc23)cc1 | 8.10 | 7.00 |  | < 5.31 | > 10000 | < 5.48 | < 5.67 |
| Cc1cc(OCc2ccc(NC(=O)[C@H]3CCN(C(=O)c4ccco4)C[C@@H]3C(=O)NO)cc2)c2ccccc2n1 | 8.52 | 5.47 |  | < 5.31 |  | < 5.48 | < 5.67 |
| Cc1cc(COc2ccc(NC(=O)[C@H]3CCN(C(=O)C4CC4)C[C@@H]3C(=O)NO)cc2)c2ccccc2n1 | 9.35 | 6.41 | 0.2 10e-6 cm s-1 | < 5.31 | 50 (≈ 99.5 µM) | < 5.61 | < 5.78 |
| Cc1cc(COc2ccc(NC(=O)[C@H]3CNCC[C@@H]3C(=O)NO)cc2)c2ccccc2n1 | 8.52 | 6.28 |  | < 5.31 | > 10000 | < 5.48 | < 5.67 |
| Cc1cc(COc2ccc(NC(=O)[C@H]3CN(C)CC[C@@H]3C(=O)NO)cc2)c2ccccc2n1 | 8.30 | 7.00 |  | < 5.31 |  | < 5.48 | < 5.67 |
| Cc1cc(COc2ccc(NC(=O)[C@@H]3[C@@H](C(=O)NO)CCCN3CC3CC3)cc2)c2ccccc2n1 | 9.00 | 6.40 |  | < 5.31 |  | < 5.48 | < 5.67 |
| O=C(NO)[C@H]1CN(C(=O)c2ccco2)CC[C@@H]1C(=O)Nc1ccc(COc2ccnc3ccccc23)cc1 | 9.10 | 6.15 |  | < 5.31 |  | < 5.48 | < 5.67 |
| Cc1cc(COc2ccc(NC(=O)[C@H]3CN(C(=O)c4ccco4)CC[C@@H]3C(=O)NO)cc2)c2ccccc2n1 | > 9.52 | 5.89 | 0.2 10e-6 cm s-1 | < 5.31 | < 100 | < 5.48 | < 5.67 |
| Cc1cc(COc2ccc(NC(=O)[C@H]3CN(CC4CC4)CC[C@@H]3C(=O)NO)cc2)c2ccccc2n1 | 9.00 | 6.52 |  | < 5.31 | > 10000 | < 5.48 | < 5.67 |
| COC(=O)N1CC[C@H](C(=O)Nc2ccc(OCc3cc(C)nc4ccccc34)cc2)[C@@H](C(=O)NO)C1 | 9.55 | 6.24 |  | < 5.31 |  | 5.95 | 6.12 |
| O=C(NO)[C@H]1CN(C(=O)C2CC2)CC[C@@H]1C(=O)Nc1ccc(OCc2ccnc3ccccc23)cc1 | 9.00 | 5.89 |  | < 5.31 |  | < 5.48 | < 5.67 |
| Cc1cc(COc2ccc(NC(=O)[C@H]3CCN(C(=O)OC4CC4)C[C@@H]3C(=O)NO)cc2)c2ccccc2n1 | 9.08 | 6.15 |  | < 5.31 |  | 6.19 | 6.68 |
| Cc1cc(COc2ccc(NC(=O)[C@H]3CCN(C(=O)OCc4nccs4)C[C@@H]3C(=O)NO)cc2)c2ccccc2n1 | > 9.52 | 6.35 |  | < 5.31 |  | 5.81 | 6.11 |
| Cc1cc(COc2ccc(NC(=O)[C@H]3CCN(C(=O)c4ccco4)C[C@@H]3C(=O)NO)cc2)c2ccccc2n1 | 10.18 | 6.77 | 0.1 10e-6 cm s-1 | < 5.31 | 10 (≈ 18.9 µM) | < 6.00 | < 6.33 |

| SMILES | pIC50 [1] | pIC50 [2] | Papp [3] | pKi [4] | solubility [5] [µg/mL] | pKi [6] | pKi [7] |
| --- | --- | --- | --- | --- | --- | --- | --- |
| Cc1cc(COc2ccc(NC(=O)[C@H]3NCCC[C@@H]3C(=O)NO)cc2)c2ccccc2n1 | 9.00 | 6.92 |  | < 5.31 |  | < 5.48 | < 5.67 |
| Cc1cc(COc2ccc(NC(=O)[C@H]3CCN(C(=O)OCc4cscn4)C[C@@H]3C(=O)NO)cc2)c2ccccc2n1 | > 9.52 | 6.28 |  | < 5.31 |  | 6.32 | 6.53 |
| O=C(NO)[C@H]1CN(C(=O)C2CC2)CC[C@@H]1C(=O)Nc1ccc(Oc2ccnc3ccccc23)cc1 | < 6.00 | < 4.30 |  | < 5.31 |  | < 5.48 | < 5.67 |
| O=C(NO)[C@H]1CN(C(=O)C2CC2)CC[C@@H]1C(=O)Nc1ccc(COc2ccnc3ccccc23)cc1 | 8.70 | 6.15 |  | < 5.31 |  | < 5.48 | < 5.67 |
| Cc1cc(COc2ccc(NC(=O)[C@H]3CCN(C4CCC4)C[C@@H]3C(=O)NO)cc2)c2ccccc2n1 | 8.80 | 5.96 |  | < 5.31 | > 10000 | < 5.48 | < 5.67 |
| Cc1cc(COc2ccc(NC(=O)[C@H]3CCNC[C@@H]3C(=O)NO)cc2)c2ccccc2n1 | 8.82 | 5.37 |  | < 5.31 | > 10000 | < 5.48 | < 5.67 |
| Cc1cc(COc2ccc(NC(=O)[C@H]3CCN(C(=O)NC(C)(C)C)C[C@@H]3C(=O)NO)cc2)c2ccccc2n1 | 9.39 | 6.25 |  | < 5.31 |  | < 5.48 | < 5.67 |
| CCCC(=O)N1CC[C@H](C(=O)Nc2ccc(OCc3cc(C)nc4ccccc34)cc2)[C@@H](C(=O)NO)C1 | 9.59 | 6.48 |  | < 5.31 |  | < 5.48 | < 5.67 |
| CC(=O)N1CC[C@H](C(=O)Nc2ccc(COc3ccnc4ccccc34)cc2)[C@@H](C(=O)NO)C1 | 9.00 | 6.25 |  | < 5.31 |  | < 5.48 | < 5.67 |
| Cc1cc(COc2ccc(NC(=O)[C@H]3CN(Cc4nccs4)CC[C@@H]3C(=O)NO)cc2)c2ccccc2n1 | 9.10 | 6.25 |  | < 5.31 |  | < 5.48 | < 5.67 |
| Cc1cc(COc2ccc(NC(=O)[C@H]3CCN(S(C)(=O)=O)C[C@@H]3C(=O)NO)cc2)c2ccccc2n1 | 9.32 | 5.87 |  | < 5.31 |  | 6.18 | 6.51 |
| Cc1cc(COc2ccc(NC(=O)[C@H]3CCN(C(=O)OC(C)C)C[C@@H]3C(=O)NO)cc2)c2ccccc2n1 | 9.36 | 6.68 |  | < 5.31 |  | 6.11 | 6.60 |
| Cc1cc(COc2ccc(NC(=O)[C@@H]3[C@@H](C(=O)NO)CCCN3C)cc2)c2ccccc2n1 | 8.21 | 7.70 |  | < 5.31 |  | < 5.48 | < 5.67 |
| Cc1cc(COc2ccc(NC(=O)[C@H]3CCN(S(=O)(=O)c4cn(C)cn4)C[C@@H]3C(=O)NO)cc2)c2ccccc2n1 | 9.51 | 5.82 |  | < 5.31 |  | 6.00 | 6.44 |
| O=C(NO)[C@H]1CCCC[C@@H]1C(=O)Nc1ccc(COc2ccnc3ccccc23)cc1 |  | < 4.30 |  | < 5.31 |  | < 5.48 | < 5.67 |
| CC(=O)N1CC[C@H](C(=O)Nc2ccc(COc3ccnc4cc(C(F)(F)F)ccc34)cc2)[C@@H](C(=O)NO)C1 | 8.49 | 5.59 |  | < 5.31 |  | < 5.48 | < 5.67 |
